The IC50 is the concentration that inhibits the measured activity by half.

The assay deals with Human TRPA1 (Homo sapiens, UniProt O75762). Briefly: Assay 1: In vitro cellular testing of TRPA1 modulation (CHO-TREx, Fluo-3 calcium fluorescence, AITC agonist). The arrangement: expressed in transfected cells; host or cells: CHO-TREx cells (Invitrogen), vector pcDNA4/TO. It is filed as cell-based. The conditions noted are these: CHO-TREx cells expressing human TRPA1; Fluo-3 fluorescence (FLIPR/Tetra); agonist 15 μM allyl isothiocyanate (AITC); 30 minute antagonist incubation. In outline: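 Antagonist potency is the 50% reduction of the AITC (15 μM) calcium response, Hill-fitted against no-antagonist and 10 μM ruthenium red controls. Fluo-3-loaded (4 μM) CHO-TREx cells with tetracycline-inducible human TRPA1 got compound in HEPES saline pH 7.4 for 30 min, usually from 10 μM in three-fold dilutions.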
Sequence of Human TRPA1 (O75762 whole entry): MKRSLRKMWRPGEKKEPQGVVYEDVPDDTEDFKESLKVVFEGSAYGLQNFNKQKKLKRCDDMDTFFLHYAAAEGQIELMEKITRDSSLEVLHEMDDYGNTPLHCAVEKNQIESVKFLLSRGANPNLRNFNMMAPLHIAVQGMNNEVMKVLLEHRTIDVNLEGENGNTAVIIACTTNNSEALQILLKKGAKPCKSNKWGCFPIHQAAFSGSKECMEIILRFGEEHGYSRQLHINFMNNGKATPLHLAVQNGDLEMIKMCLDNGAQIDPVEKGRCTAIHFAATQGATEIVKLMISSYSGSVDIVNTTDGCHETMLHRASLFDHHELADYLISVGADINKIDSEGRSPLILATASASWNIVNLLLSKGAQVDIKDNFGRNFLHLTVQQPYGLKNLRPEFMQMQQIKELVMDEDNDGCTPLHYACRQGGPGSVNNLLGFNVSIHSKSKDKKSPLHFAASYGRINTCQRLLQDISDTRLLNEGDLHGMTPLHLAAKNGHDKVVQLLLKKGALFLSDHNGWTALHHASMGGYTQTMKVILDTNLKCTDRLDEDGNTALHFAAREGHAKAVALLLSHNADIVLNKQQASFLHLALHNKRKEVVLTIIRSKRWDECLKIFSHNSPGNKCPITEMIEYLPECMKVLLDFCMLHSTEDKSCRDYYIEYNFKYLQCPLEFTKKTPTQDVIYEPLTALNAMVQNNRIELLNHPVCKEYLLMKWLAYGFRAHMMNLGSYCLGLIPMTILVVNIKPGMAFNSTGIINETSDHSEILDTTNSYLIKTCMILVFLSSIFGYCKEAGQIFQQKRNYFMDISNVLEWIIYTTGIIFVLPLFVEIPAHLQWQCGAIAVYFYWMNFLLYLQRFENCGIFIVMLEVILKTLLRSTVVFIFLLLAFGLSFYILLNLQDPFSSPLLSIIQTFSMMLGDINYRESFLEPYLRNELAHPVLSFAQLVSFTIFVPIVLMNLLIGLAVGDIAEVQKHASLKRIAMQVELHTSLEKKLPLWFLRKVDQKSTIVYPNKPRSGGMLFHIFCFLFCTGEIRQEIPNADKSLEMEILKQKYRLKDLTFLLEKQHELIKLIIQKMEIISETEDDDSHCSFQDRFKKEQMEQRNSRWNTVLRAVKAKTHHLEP
With `O=C(NCc1cc(-c2ccc(OC(F)(F)F)cc2)ccn1)[C@@H]1CC(F)(F)CN1S(=O)(=O)c1ccc(Cl)s1` [Example 142, 1-(5-Chloro-thiophene-2-sulfonyl)-4,4-difluoro-pyrrolidine-2S-carboxylic acid [4-(4-trifluoromethoxy-phenyl)-pyridin-2-ylmethyl]-amide], the IC50 turned out to be 78 nM.

As to `CC(=O)c1ccc(S(=O)(=O)N2CCC[C@H]2C(=O)NCc2cc(-c3ccc(C(F)(F)F)cc3)ncn2)cc1` [Example 162, 1-(4-Acetylbenzenesulfonyl)-pyrrolidine-2S-carboxylic acid [6-(4-trifluoromethylphenyl)-pyrimidin-4-ylmethyl]-amide], the IC50 was 1700 nM.

Turning to `N[C@H]1CCN(c2nc(CNC(=O)[C@@H]3CCCN3S(=O)(=O)c3ccc(Cl)s3)cc(-c3ccc(C(F)(F)F)cc3)n2)C1` [Example 39, 1-(5-Chloro-thiophene-2-sulfonyl)-pyrrolidine-2S-carboxylic acid [2-(3S-amino-pyrrolidin-1-yl)-6-(4-trifluoromethyl-phenyl)-pyrimidin-4-ylmethyl]-amide], the IC50 is 1260 nM.

On to `CN(C(=O)OC(C)(C)C)C1CCN(c2nc(CNC(=O)[C@@H]3CCCN3S(=O)(=O)c3ccc(Cl)s3)cc(-c3ccc(C(F)(F)F)cc3)n2)C1` (stereo partly drawn) [Example 38, {1-[4-({[1-(5-Chloro-thiophene-2-sulfonyl)-pyrrolidine-2S-carbonyl]-amino}-methyl)-6-(4-trifluoromethyl-phenyl)-pyrimidin-2-yl]-pyrrolidin-3-yl}-methyl-carbamic acid tert-butyl ester], for which the IC50 worked out at 6 nM.

For `O=C(NCc1cccc(-c2ccc(C(F)(F)F)cc2)c1)[C@@H]1CC(F)(F)CN1S(=O)(=O)c1ccc(Cl)s1` [Example 120, (2S)-1-(5-Chloro-thiophene-2-sulfonyl)-4,4-difluoro-pyrrolidine-2-carboxylic acid (4′-trifluoromethyl-biphenyl-3-ylmethyl)-amide], the IC50 turned out to be 30 nM.

Regarding `O=C(NCc1cc(-c2ccc(C(F)(F)F)cc2)ncn1)[C@@H]1CCCN1S(=O)(=O)c1cc(Cl)sc1Cl` [Example 173, 1-(2,5-Dichlorothiophene-3-sulfonyl)-pyrrolidine-2S-carboxylic acid [6-(4-trifluoromethylphenyl)-pyrimidin-4-ylmethyl]-amide], the IC50 came to 1150 nM.

As for `COc1ccc(-c2cccc(CNC(=O)[C@@H]3CCCN3S(=O)(=O)c3ccc(F)cc3)c2)nc1` [Example 90, 1-(4-Fluorobenzenesulfonyl)-pyrrolidine-2S-carboxylic acid 3-(5-methoxypyridin-2-yl)-benzylamide], the IC50 was 8300 nM.

Regarding `CNc1cc(CNC(=O)[C@@H]2CC(F)(F)CN2S(=O)(=O)c2ccc(Cl)s2)cc(-c2ccc(C(F)(F)F)cc2)n1` [Example 384, 1-[(5-Chlorothiophen-2-yl)sulfonyl]-4,4-difluoro-N-({2-(methylamino)-6-[4-(trifluoromethyl)phenyl]pyridin-4-yl}methyl)-L-prolinamide], the IC50 was found to be 2220 nM.

With `CC(Nc1cc(CNC(=O)[C@@H]2CCCN2S(=O)(=O)c2ccc(Cl)s2)cc(-c2ccc(C(F)(F)F)cc2)n1)c1ccccc1` (stereo partly drawn) [Example 414, 1-[(5-Chlorothiophen-2-yl)sulfonyl]-N-({2-[(1-phenylethyl)amino]-6-[4-(trifluoromethyl)phenyl]pyridin-4-yl}methyl)-L-prolinamide], the IC50 was 57 nM.

Consider `CN(C)c1nc(CNC(=O)[C@@H]2CCCN2S(=O)(=O)c2ccc(F)cc2)cc(-c2ccc(C(F)(F)F)cc2)n1` [Example 10, 1-(4-Fluoro-benzenesulfonyl)-pyrrolidine-2S-carboxylic acid [2-dimethylamino-6-(4-trifluoromethyl-phenyl)-pyrimidin-4-ylmethyl]-amide], for which the concentration for half-maximal inhibition (IC50) turned out to be 30 nM.

For `O=C(NCc1cc(NCc2ccncc2)nc(-c2ccc(C(F)(F)F)cc2)c1)[C@@H]1CCCN1S(=O)(=O)c1ccc(F)cc1` [Example 385, 1-[(4-Fluorophenyl)sulfonyl]-N-({2-[(pyridin-4-ylmethyl)amino]-6-[4-(trifluoromethyl)phenyl]pyridin-4-yl}methyl)-L-prolinamide], the IC50 was determined as 978 nM.

`O=C(NCc1cc(-c2ccc(C(F)(F)F)cc2)nc(N2CCN(c3ccccc3F)CC2)c1)[C@@H]1CC(F)(F)CN1S(=O)(=O)c1ccc(F)cc1` [Example 357, 4,4-Difluoro-N-({2-[4-(2-fluorophenyl)piperazin-1-yl]-6-[4-(trifluoromethyl)phenyl]pyridin-4-yl}methyl)-1-[(4-fluorophenyl)sulfonyl]-L-prolinamide]: the IC50 is > 10000 nM.

As for `O=C(NCc1cc(-c2ccc(C(F)(F)F)cc2)nc(OCC(F)(F)F)n1)[C@@H]1CCCN1S(=O)(=O)c1ccc(Cl)s1` [Example 58, 1-(5-Chloro-thiophene-2-sulfonyl)-pyrrolidine-2S-carboxylic acid [2-(2,2,2-trifluoro-ethoxy)-6-(4-trifluoromethyl-phenyl)-pyrimidin-4-ylmethyl]-amide], the 50% inhibitory concentration (IC50) was 5 nM.

With `O=C(NCc1cc(NCc2ccccc2)nc(-c2ccc(C(F)(F)F)cc2)c1)[C@@H]1C=CCN1S(=O)(=O)c1ccc(Cl)s1` [Example 320, (2S)—N-({2-(Benzylamino)-6-[4-(trifluoromethyl)phenyl]pyridin-4-yl}methyl)-1-[(5-chlorothiophen-2-yl)sulfonyl]-2,5-dihydro-1H-pyrrole-2-carboxamide], the IC50 came out at 745 nM.

Consider `O=C(NCc1cccc(-c2ccc(C(F)(F)F)cc2)c1)[C@@H]1C[C@@H](O)CN1S(=O)(=O)c1ccc(F)cc1` [Example 122, (2S,4R)-1-(4-Fluoro-benzenesulfonyl)-4-hydroxy-pyrrolidine-2-carboxylic acid (4′-trifluoromethyl-biphenyl-3-ylmethyl)-amide], for which the IC50 was determined as 267 nM.

On to `O=C(NCc1cc(-c2ccc(C(F)(F)F)cc2)nc(N2CCN(Cc3ccccc3)CC2)c1)[C@@H]1C=CCN1S(=O)(=O)c1ccc(F)cc1` [Example 361, (2S)—N-({2-(4-Benzylpiperazin-1-yl)-6-[4-(trifluoromethyl)phenyl]pyridin-4-yl}methyl)-1-[(4-fluorophenyl)sulfonyl]-2,5-dihydro-1H-pyrrole-2-carboxamide], for which the IC50 was 452 nM.

Consider `O=C(NCc1cc(-c2ccc(C(F)(F)F)nc2)ncn1)[C@@H]1CCCN1S(=O)(=O)c1ccc(F)cc1` [Example 178, 1-(4-Fluoro-benzenesulfonyl)-pyrrolidine-2S-carboxylic acid [6-(6-trifluoromethyl-pyridin-3-yl)-pyrimidin-4-ylmethyl]-amide], for which the concentration for half-maximal inhibition (IC50) was 203 nM.

For the molecule `O=C(NCc1cc(-c2ccc(C(F)(F)F)cc2)nc(N2CCN(Cc3ccccn3)CC2)c1)[C@@H]1CC(F)(F)CN1S(=O)(=O)c1ccc(F)cc1` [Example 387, 4,4-Difluoro-1-[(4-fluorophenyl)sulfonyl]-N-({2-[4-(pyridin-2-ylmethyl)piperazin-1-yl]-6-[4-(trifluoromethyl)phenyl]pyridin-4-yl}methyl)-L-prolinamide], the half-inhibitory concentration (IC50) was found to be 3050 nM.

Take `CC(Nc1cc(CNC(=O)[C@@H]2CCCN2S(=O)(=O)c2ccc(Cl)s2)cc(-c2ccc(C(F)(F)F)cc2)n1)c1cccnc1` (stereo partly drawn) [Example 405, 1-[(5-Chlorothiophen-2-yl)sulfonyl]-N-({2-[(1-pyridin-3-ylethyl)amino]-6-[4-(trifluoromethyl)phenyl]pyridin-4-yl}methyl)-L-prolinamide]: the IC50 amounted to 481 nM.

Source of the values: patent US8614201B2 (Janssen Pharmaceutica NV, priority 2009, dated 2013).
